Assay results: ChEMBL document CHEMBL4334532, “Cytotoxic p-Terphenyls from a Marine-Derived Nocardiopsis Species” (J Nat Prod, 2019)
pIC50: −log10 of the molar value. Calls of active or inactive are those of the source. The rule behind the calls is not given here.

How the values were obtained:
NCI-H1299 = assay: Cytotoxicity against human H1299 cells measured after 72 hrs by Celltiter-Glo assay; type: functional, cell-based; conditions: NCI-H1299, 72 h
U-87 MG = assay: Cytotoxicity against human U87 cells measured after 72 hrs by Celltiter-Glo assay; type: functional, cell-based, U-87MG ATCC
MV4-11 = assay: Cytotoxicity against human MV4-11 cells measured after 72 hrs by Celltiter-Glo assay; type: functional, cell-based; conditions: MV4-11, 72 h
MCF7 [1] = assay: Cytotoxicity against human MCF7 cells measured after 72 hrs by Celltiter-Glo assay; type: functional, cell-based; conditions: MCF7, 72 h
Hep 3B2 = assay: Cytotoxicity against human Hep3B cells measured after 72 hrs by Celltiter-Glo assay; type: functional, cell-based
K562 [2] = assay: Cytotoxicity against human K562 cells measured after 72 hrs by Celltiter-Glo assay; type: functional, cell-based; conditions: K562, 72 h
NCI-N87 = assay: Cytotoxicity against human NCI-N87 cells measured after 72 hrs by Celltiter-Glo assay; type: functional, cell-based; conditions: NCI-N87, 72 h
HL-60 = assay: Cytotoxicity against human HL60 cells measured after 72 hrs by Celltiter-Glo assay; type: functional, cell-based; conditions: HL-60, 72 h
U-251 = assay: Cytotoxicity against human U251 cells measured after 72 hrs by Celltiter-Glo assay; type: functional, cell-based; conditions: U-251, 72 h
B16-F10 = assay: Cytotoxicity against mouse B16/F10 cells measured after 72 hrs by Celltiter-Glo assay; type: functional, cell-based; conditions: B16-F10, 72 h
MDA-MB-468 = assay: Cytotoxicity against human MDA-MB-468 cells measured after 72 hrs by Celltiter-Glo assay; type: functional, cell-based; conditions: MDA-MB-468, 72 h
143B = assay: Cytotoxicity against human 143B cells measured after 72 hrs by Celltiter-Glo assay; type: functional, cell-based
KARPAS-299 = assay: Cytotoxicity against human KARPAS299 cells measured after 72 hrs by Celltiter-Glo assay; type: functional, cell-based; conditions: KARPAS-299, 72 h
NCI-H1975 = assay: Cytotoxicity against human NCI-H1975 cells harboring EGFR double L858R/T790M mutant measured after 72 hrs by Celltiter-Glo assay; type: functional, cell-based; conditions: NCI-H1975, 72 h
NCI-H2228 = assay: Cytotoxicity against human NCI-H2228 cells measured after 72 hrs by Celltiter-Glo assay; type: functional, cell-based; conditions: NCI-H2228, 72 h
HCC1954 = assay: Cytotoxicity against human HCC1954 cells measured after 72 hrs by Celltiter-Glo assay; type: functional, cell-based; conditions: HCC1954, 72 h
DU-145 = assay: Cytotoxicity against human DU145 cells measured after 72 hrs by Celltiter-Glo assay; type: functional, cell-based; conditions: DU-145, 72 h
MKN-45 = assay: Cytotoxicity against human MKN45 cells measured after 72 hrs by Celltiter-Glo assay; type: functional, cell-based; conditions: MKN-45, 72 h
A673 = assay: Cytotoxicity against human A673 cells measured after 72 hrs by Celltiter-Glo assay; type: functional, cell-based; conditions: A673, 72 h
A549 [3] = assay: Cytotoxicity against human A549 cells measured after 72 hrs by Celltiter-Glo assay; type: functional, cell-based; conditions: A549, 72 h
[4] = Cytotoxicity against human SPC-A1 cells overexpressing maspin protein measured after 72 hrs by Celltiter-Glo assay; type: functional, cell-based; conditions: SPCA1, 72 h
BT-474 = assay: Cytotoxicity against human BT474 cells measured after 72 hrs by Celltiter-Glo assay; type: functional, cell-based; conditions: BT-474, 72 h
MDA-MB-231 = assay: Cytotoxicity against human MDA-MB-231 cells measured after 72 hrs by Celltiter-Glo assay; type: functional, cell-based; conditions: MDA-MB-231, 72 h
HCT-116 = assay: Cytotoxicity against human HCT116 cells measured after 72 hrs by Celltiter-Glo assay; type: functional, cell-based; conditions: HCT-116, 72 h
A-431 = assay: Cytotoxicity against human A431 cells measured after 72 hrs by Celltiter-Glo assay; type: functional, cell-based; conditions: A-431, 72 h
HuCCT-1 = assay: Cytotoxicity against human HuCCT1 cells measured after 72 hrs by Celltiter-Glo assay; type: functional, cell-based; conditions: HuCCT-1, 72 h
K562 [5] = assay: Cytotoxicity against human K562 cells assessed as inhibition of cell growth measured after 72 hrs by CCK-8 assay; type: functional, cell-based; conditions: K562, 72 h
A549 [6] = assay: Cytotoxicity against human A549 cells assessed as inhibition of cell growth measured after 72 hrs by MTT assay; type: functional, cell-based; conditions: A549, 72 h
MCF7 [7] = assay: Cytotoxicity against human MCF7 cells assessed as inhibition of cell growth measured after 72 hrs by MTT assay; type: functional, cell-based; conditions: MCF7, 72 h
L02 = assay: Cytotoxicity against human LO2 cells assessed as inhibition of cell growth measured after 72 hrs by MTT assay; type: cell-based; conditions: L02, 72 h
[8] = Cytotoxicity against human P6C cells assessed as inhibition of cell growth measured after 72 hrs by MTT assay; type: functional, cell-based
HeLa = assay: Cytotoxicity against human HeLa cells; type: functional, cell-based

SMILES | pIC50 (NCI-H1299) | pIC50 (U-87 MG) | pIC50 (MV4-11) | pIC50 (Hep 3B2) | pIC50 (K562 [2]) | pIC50 (NCI-N87) | pIC50 (U-251) | pIC50 (B16-F10) | pIC50 (MDA-MB-468) | pIC50 (143B) | pIC50 (KARPAS-299) | pIC50 (NCI-H1975) | pIC50 (NCI-H2228) | pIC50 (HCC1954) | pIC50 (DU-145) | pIC50 (MKN-45) | pIC50 (A673) | pIC50 (A549 [3]) | pIC50 [4] | pIC50 (BT-474) | further results
COc1ccc(-c2cc(O)c(-c3ccc(OC)cc3)c(OC)c2OC)cc1 | < 4.00 | < 4.00 | 6.11 | < 4.00 | 5.05 | < 4.00 | < 4.00 | < 4.00 | 6.17 | 5.11 | < 4.00 | 5.36 | 5.30 | 5.70 | 6.00 | 4.92 | 5.05 | 5.01 | 5.01 | < 4.00 | pIC50 (MCF7 [1]): 4.77; pIC50 (HL-60): 5.30; pIC50 (MDA-MB-231): 5.70; pIC50 (HCT-116): < 4.00; pIC50 (A-431): < 4.00; pIC50 (HuCCT-1): < 4.00
COc1ccc(-c2cc(O)c(-c3ccc(OC)cc3)c(OC)c2O)cc1 | – | – | – | – | – | – | – | – | – | – | – | – | – | – | – | – | – | – | – | – | pIC50 (K562 [5]): < 4.40; pIC50 (A549 [6]): < 4.40; pIC50 (MCF7 [7]): 4.52; pIC50 (L02): < 4.40; pIC50 [8]: < 4.40
COC1=C(c2ccc(OC)cc2)C(=O)C=C(c2ccc(OC)cc2)C1=O | 6.14 | < 4.00 | 6.80 | < 4.00 | 5.32 | 6.00 | 5.33 | 6.12 | 5.96 | 5.30 | < 4.00 | 5.51 | 6.03 | 6.32 | 6.28 | 6.31 | 6.12 | 6.32 | 5.70 | 5.44 | pIC50 (MCF7 [1]): < 4.00; pIC50 (HL-60): 6.77; Activity (HeLa): Active; pIC50 (MDA-MB-231): 5.70; pIC50 (HCT-116): 5.72; pIC50 (A-431): < 4.00; pIC50 (HuCCT-1): 6.70
COc1ccc(-c2c(OC)c(O)c(-c3ccc(OC)cc3)c3scnc23)cc1 | – | – | – | – | – | – | – | – | – | – | – | – | – | – | – | – | – | – | – | – | pIC50 (K562 [5]): 6.11; pIC50 (A549 [6]): 5.29; pIC50 (MCF7 [7]): 5.22; pIC50 (L02): 4.77; pIC50 [8]: 5.03
COc1ccc(-c2c3c(c(-c4ccc(OC)cc4)c(O)c2OC)SCC(=O)N3)cc1 | < 4.00 | < 4.00 | < 4.00 | < 4.00 | < 4.00 | < 4.00 | < 4.00 | < 4.00 | < 4.00 | < 4.00 | < 4.00 | < 4.00 | < 4.00 | < 4.00 | < 4.00 | < 4.00 | < 4.00 | < 4.00 | < 4.00 | < 4.00 | pIC50 (MCF7 [1]): < 4.00; pIC50 (HL-60): < 4.00; pIC50 (MDA-MB-231): < 4.00; pIC50 (HCT-116): < 4.00; pIC50 (A-431): < 4.00; pIC50 (HuCCT-1): < 4.00
COc1ccc(-c2c(OC)c(O)c(-c3ccc(OC)cc3)c3sc(CO)nc23)cc1 | < 4.00 | < 4.00 | 5.40 | < 4.00 | 5.05 | < 4.00 | < 4.00 | < 4.00 | 5.55 | 5.26 | < 4.00 | < 4.00 | 5.77 | 7.00 | < 4.00 | < 4.00 | < 4.00 | 5.11 | < 4.00 | 5.22 | pIC50 (MCF7 [1]): 4.74; pIC50 (HL-60): 6.42; pIC50 (MDA-MB-231): < 4.00; pIC50 (HCT-116): < 4.00; pIC50 (A-431): 5.34; pIC50 (HuCCT-1): < 4.00
COc1cccc2c1C(=O)c1c(O)c3c(c(O)c1C2=O)C[C@@](O)(C(=O)CO)C[C@@H]3O[C@H]1C[C@H](N)[C@H](O)[C@H](C)O1 [DOXORUBICIN] | 6.30 | 6.96 | 6.80 | 4.80 | 7.68 | 7.33 | 6.77 | 7.80 | < 4.00 | 7.00 | 6.42 | 7.06 | 7.01 | 7.35 | 7.29 | 6.72 | 7.00 | 6.96 | 6.74 | 5.72 | pIC50 (K562 [5]): 6.48; pIC50 (A549 [6]): 6.24; pIC50 (L02): 6.15; pIC50 [8]: 6.15; pIC50 (A-431): 6.80; pIC50 (HuCCT-1): 7.32
